Test results as given in US5157019A, “Serine protease inhibitors” (Monsanto Company, priority 1991, dated 1992).
Where two headings read alike, the source gives them in different places. Ends that are not written are not given here.

Assays:
Assay type in all cases: biochemical
Cathepsin G = target: T1, Cathepsin G (Homo sapiens, UniProt P08311); test: Cathepsin G assay (Suc-Ala-Ala-Pro-Phe-pNA, 410 nm); conditions: for Cathepsin G % inhibition / inhibition at 100 µM: 100 μM peptide (Tables VI, VIII); for Cathepsin G Inhibition / inhibition at 200 µM: 200 μM peptide (head of Table IX)
T1 construct: purchased Elastin Products Company (EPC) SG-45
T1 sequence (P08311 21-255): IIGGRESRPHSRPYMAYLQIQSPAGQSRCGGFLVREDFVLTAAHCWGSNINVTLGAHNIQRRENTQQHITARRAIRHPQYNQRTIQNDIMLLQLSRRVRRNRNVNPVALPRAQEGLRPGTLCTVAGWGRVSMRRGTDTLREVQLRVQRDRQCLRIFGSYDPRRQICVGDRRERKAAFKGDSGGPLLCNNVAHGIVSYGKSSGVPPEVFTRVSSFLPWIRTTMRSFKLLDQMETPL
Procedure: Reference: Elastin Products Company (EPC) technical data sheet, cathepsin G, No. SG-45.
Method: Spectrophotometric rate determination
A) Buffer; 0.1M Tris, pH 7.5 at 25° C.
B) Substrate; 60 mM Suc-Ala-Ala-Pro-Phe-pNA obtained from Sigma Chemical Company. Solution prepared by dissolving 50 mg substrate in 1.3 ml of 1-methyl-2-pyrrolidinone. Stored at 5° C.
C) Peptide Inhibitors; 200 μM HCl salt. Depending on peptide solubility, dissolved in buffer or DMSO and then buffer added for a final concentration of 10% DMSO.
D) Enzyme; Cathepsin G, EPC SG-45, lot 85117 used for all assays, 0.0077 mg protein per mg solid determined by supplier by Bradford method. Enzyme was dissolved in buffer at a concentration of approx. 5 mg/ml solid. Solution stored on ice, used within 2 hours.
Pipetted the following into semi-micro quartz cuvettes: 0.3 ml buffer, 0.15 ml peptide solution and 0.5 ml of substrate solution. Equilibrate for 5 min. at 25° C., then add 0.05 ml of enzyme solution and monitor the release of pNA spectrophotometrically at 410 nm for at least 3 minutes. The controls contain either 0.45 ml of buffer or 20% DMSO in buffer (for a final concentration of 10% DMSO).
The rate (O.D./min) is obtained as an average over 3 minutes. [formula]

Factor D = target: T2, Factor D (Homo sapiens, UniProt P00746); test: Factor D assay by inhibition of fluid phase Factor B activation
T2 construct: prepared from pooled human plasma; from tissue; host or cells: pooled human plasma
Procedure: Highly purified C3, C4, Factor D, Factor B, and C1s were prepared from pooled human plasma. Factors B and C4 were radiolabeled by periodate oxidation of sialic acid residues, followed by reduction with tritiated sodium borohydride. In a representative experiment, a solution of 1.2 mg of factor B in 1.8 ml of PBS was treated with 70 μl of 0.1M NaIO4. After 10 min incubation on ice, excess reagent was removed by filtration over "SEPHADEX®" which is a matrix for gel chromatography (1.0 cm×20 cm). To the protein pool was added 60 μl of NaB[^3 H]4 solution and incubated for 30 min on ice. Labeled protein was separated from excess reagent by desalting or dialysis. Human C4 was radiolabeled in the same manner. Radiolabeled proteins were stored at -70° C. in PBS. The specific radioactivity of ^3 H factor B was about 10,000 CPM/μg and that of ^3 H-C4 was 5,000 CPM/μg.
The effect of the peptides on Factor D-dependent cleavage of factor B was studied by incubating 3.5 μg of Factor B, 1.5 μg of C3(H2 O) and 0.2 μl of Factor D at 37° C. for 60 min in Mg-PBS containing different concentrations of inhibitor. Uncleaved Factor B and its fragments, Ba and Bb, were first separated by SDS-PAGE and analyzed as described above. The percent cleavage of the reaction was calculated as follows: [formula]
B=radioactivity (CPM) of uncleaved factor B
Bb=radioactivity (CPM) of fragment Bb
Ba=radioactivity (CPM) of fragment Ba
Electrophoresis was carried out under reducing conditions in the Laemmli system using slab gel of 8% polyacrylamide. The gels were stained and destained (Fairbanks et al. Biochemistry (1971) 10:2606).
The percent inhibition of the reaction was calculated according to the following relationship: [formula]
A: % cleavage without inhibitor
B: % cleavage with inhibitor
The concentration inducing 50% inhibition was obtained by plotting the percent inhibition on a probability graph (National Blank Book Co., No. 12-083) on the ordinate and the log of the inhibitor concentration on the abscissa. From this graph, a 50% inhibition concentration IC50 was obtained and this value was employed to express the activity.

Thrombin = Thrombin (Homo sapiens, UniProt P00734); test: Coagulation inhibition assay, thrombin (fibrinogen clotting end point); conditions: 40 μM peptide
Procedure: Inhibitory activity of subject peptides toward thrombin and Factor Xa were done in the following manner. Mix 100 μL Thrombin (3.125 units/ml, 1.125 μg/ml) in TAB with […] Peptide in TAB and incubate for 1 minute at 37° C. Add 50 μL Fibrinogen (2 mg/ml)and measure clotting end point (in seconds) in a Fibrometer (BBL) TAB=Thrombin Assay Buffer: 0.15M NaCl, 6.6 gm/L PEG-6000, 0.01M Imidazole, 0.01 CaCl2, pH 7.4

Factor Xa = Factor Xa (Homo sapiens, UniProt P00742); test: Coagulation inhibition assay, Factor Xa (clotting of Factor X deficient plasma); conditions: 40 μM peptide
Procedure: Inhibitory activity of subject peptides toward thrombin and Factor Xa were done in the following manner.
Mix 50 μL Factor Xa (0.1 μg/ml) in TBSA with 100 μL Peptide in TBSA and 50 μL CaCl2 25 mM and incubate for 1 minute at 37° C. Add 50 μL Factor X deficient plasma/RBC (10/1) and measure clotting end point (in seconds) in a Fibrometer (BBL)
TBSA=Tris-Saline with Bovine Serum Albumin: 0.1M NaCl,0.05 M Tris-HCl, 1 mg/ml BSA, 0.1% NaN3
Factor X deficient plasma: George King Biomedical (GK 1004) RBC=Rabbit Brain Cephalin: Sigma Chemical Co. St. Louis, Mo.

Plasmin = Plasmin (Homo sapiens, UniProt P00747); test: Plasmin assay (S2251); conditions: 200 μM peptide
Procedure: Substrate H-D-Val-Leu-Lys-pNA·HCl (S2251, Kabi), 10 mM in deionized water; may be frozen for future use.
Buffer 50 mM Tris·HCl, pH 7.4 containing 0.01% Tween 80
Inhibitor 400 μM in deionized water
Enzyme Plasmin; 0.5 U/ml in buffer (Cat #P-4895, Sigma Chemical Co., St. Louis, Mo.)
Mix 220 μL buffer, 200 μL deionized water (control) or inhibitor solution and 40 μL substrate. Incubate for 2 min at 37° C. Transfer 230 μL to a microcuvette, add 40 μL of enzyme, mix, and measure rate spectrophotometrically at 405 nm for about 5 min. Inhibition (%) is calculated in the same manner as in previous assays.

[1] = Tables VI and VIII, % 50, read-out: Factor D, μM concentration listed for 50 % inhibition
[2] = Table X, μM concentration at which protease was inhibited 50%, read-out: IC50 D

T2 sequence (P00746 26-253): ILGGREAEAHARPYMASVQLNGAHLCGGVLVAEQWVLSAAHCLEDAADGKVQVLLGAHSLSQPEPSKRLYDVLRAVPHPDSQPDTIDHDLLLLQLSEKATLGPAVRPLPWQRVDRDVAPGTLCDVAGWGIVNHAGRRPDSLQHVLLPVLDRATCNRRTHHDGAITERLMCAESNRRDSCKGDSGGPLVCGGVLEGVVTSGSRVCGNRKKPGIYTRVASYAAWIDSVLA
Sequence of Plasmin (P00747 581-810 limits assumed): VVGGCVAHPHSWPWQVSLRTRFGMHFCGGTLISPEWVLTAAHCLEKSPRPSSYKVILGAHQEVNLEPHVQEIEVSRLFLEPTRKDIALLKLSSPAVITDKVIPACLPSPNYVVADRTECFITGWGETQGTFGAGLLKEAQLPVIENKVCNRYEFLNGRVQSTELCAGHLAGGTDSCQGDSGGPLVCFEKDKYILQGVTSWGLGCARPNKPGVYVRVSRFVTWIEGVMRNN
Sequence of Plasmin (P00747 97-580 partner limits assumed): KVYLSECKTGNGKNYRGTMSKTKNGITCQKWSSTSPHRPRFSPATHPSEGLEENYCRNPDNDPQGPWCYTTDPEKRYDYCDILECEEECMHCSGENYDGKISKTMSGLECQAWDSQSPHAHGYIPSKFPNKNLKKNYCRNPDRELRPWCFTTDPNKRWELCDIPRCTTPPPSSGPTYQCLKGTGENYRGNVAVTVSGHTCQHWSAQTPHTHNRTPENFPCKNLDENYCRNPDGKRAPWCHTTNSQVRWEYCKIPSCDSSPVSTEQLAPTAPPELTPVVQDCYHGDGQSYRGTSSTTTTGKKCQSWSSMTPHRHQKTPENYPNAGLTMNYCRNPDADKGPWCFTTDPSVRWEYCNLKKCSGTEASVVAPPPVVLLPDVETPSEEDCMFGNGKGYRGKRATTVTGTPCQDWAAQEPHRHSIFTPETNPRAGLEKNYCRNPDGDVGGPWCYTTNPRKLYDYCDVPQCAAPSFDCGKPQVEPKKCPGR
Sequence of Factor Xa (P00742 235-488 limits assumed): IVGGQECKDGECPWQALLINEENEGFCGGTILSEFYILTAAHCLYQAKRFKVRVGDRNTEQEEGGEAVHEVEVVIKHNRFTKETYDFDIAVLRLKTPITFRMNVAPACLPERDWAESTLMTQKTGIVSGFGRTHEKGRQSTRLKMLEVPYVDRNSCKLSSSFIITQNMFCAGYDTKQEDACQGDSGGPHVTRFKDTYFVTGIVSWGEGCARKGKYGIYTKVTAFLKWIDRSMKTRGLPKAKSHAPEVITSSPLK
Sequence of Factor Xa (P00742 41-179 partner limits assumed): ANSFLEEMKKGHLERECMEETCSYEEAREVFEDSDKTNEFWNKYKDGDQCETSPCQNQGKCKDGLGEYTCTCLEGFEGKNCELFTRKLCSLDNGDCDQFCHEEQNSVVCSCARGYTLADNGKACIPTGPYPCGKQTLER

Row | Cathepsin G % inhibition (Cathepsin G) | Cathepsin G Inhibition (Cathepsin G) | IC50 (Factor D; [1]) | Thrombin inhibition (Thrombin) | Factor Xa % inhibition (Factor Xa) | Plasmin % inhibition (Plasmin) | inhibition at 100 µM (Cathepsin G) | inhibition at 200 µM (Cathepsin G) | IC50 (Factor D; [2]) | inhibition at 40 µM (Thrombin) | inhibition at 40 µM (Factor Xa) | inhibition at 200 µM (Plasmin) | inhibition at 200 µM (Factor D; 200 μM peptide) | Compound
1 | 46% | 46% | 4 µM | 90% | 97% | 56% |  |  |  |  |  |  |  | IVRFNRPFLLIIVPTDTQNIFFLSKVTNPSKPR [Peptide 22]
2 |  |  |  |  |  |  |  | 52% | < 25 µM | 97% |  |  |  | AGRSLNPNRVTFKANRPFLVFIREVPLNTIIFLGRVANP [Peptide 27]

The next lines start with the compound.

Row | Compound | Cathepsin G % inhibition (Cathepsin G) | Cathepsin G Inhibition (Cathepsin G) | IC50 (Factor D; [1]) | Thrombin inhibition (Thrombin) | Factor Xa % inhibition (Factor Xa) | Plasmin % inhibition (Plasmin) | inhibition at 100 µM (Cathepsin G) | inhibition at 200 µM (Cathepsin G) | IC50 (Factor D; [2]) | inhibition at 40 µM (Thrombin) | inhibition at 40 µM (Factor Xa) | inhibition at 200 µM (Plasmin) | inhibition at 200 µM (Factor D; 200 μM peptide)
3 | RVTFKANRPFLVFIREVPLNTIIFLGRVANP [Peptide 21] |  |  | < 8 µM |  |  |  | 38% | 38% | < 8 µM | 97% | 99% | 53% | 
4 | PNRVTFKANRPFLVFI [Peptide 2] |  |  | 53 µM |  |  |  | 13% | 13% |  |  | 51% | 33% | 
5 | VKFNKPFVFLLIEQNTKSPLFLGKVVNPTQK [Peptide 20] | 0% | 0% | 16 µM | 71% | 87% | 43% |  |  |  |  |  |  | 
6 | IVRFNRPFLLII [Peptide 3] |  |  | 111 µM |  |  |  | 32% | 32% |  | 50% | 73% | 33% | 
7 | CC[C@H](C)[C@H](NC(=O)[C@H](CC(C)C)NC(=O)[C@H](Cc1ccccc1)NC(=O)[C@@H](NC(=O)[C@H](Cc1ccccc1)NC(=O)[C@@H]1CCCN1C(=O)[C@H](CCCCN)NC(=O)[C@H](CC(N)=O)NC(=O)[C@H](Cc1ccccc1)NC(=O)[C@H](CCCCN)NC(=O)[C@@H](NC(=O)[C@H](CCC(=O)O)NC(=O)[C@@H]1CCCN1C(=O)[C@@H]1CCCN1)C(C)C)C(C)C)C(=O)O [Peptide 1] |  |  |  |  |  |  | 0% | 0% |  | 0% | 31% | 37% | 0%
